Reference: US9302014B2, “Cell-penetrating peptides having a central hydrophobic domain” (Medical Research Council, priority 2011, dated 2016)
Like-named read-outs stand apart in the source and are kept apart here. Non-standard residues stand in square brackets, D forms with d. No end group written: not given here. Ahx = NCCCCCC(=O)O; βAla = NCCC(=O)O

Legend:
[1] = mice; cited from earlier work
[2] = monkeys; cited from earlier work
[3] = tested on: dystrophin exon 23; experiment: Exon skipping in differentiated mouse H2K mdx myotubes (nested RT-PCR, densitometry); type: cell-based; conditions: no transfection agent
Method: The exon skipping potential of Pip6-PMO conjugates was evaluated in differentiated mouse H2K mdx myotubes in the absence of any transfection agent (FIG. 1) at concentrations ranging from 0.125 μM to 1 μM. […] In the case of Pip6 sequences, the flanking arginine-rich sequences are identical (with the exception of Pip6e, which is identical except for one arginine immediately preceding the core which is displaced into the second position of the core). […] Note that we have previously shown that major changes in in vitro exon skipping activities are correlated instead with the total numbers of arginine residues [Saleh, A. F., et al., Synthesis and splice-redirecting activity of branched, arginine-rich peptide dendrimer conjugates of peptide nucleic acid oligonucleotides. Bioconjug Chem, 2010. 21(10): p. 1902-11.].
H2K mdx myotubes are derived from H2K mdx myoblasts obtained from the EDL muscle of a male H2K mdx f2 mouse. The cells are dystrophin deficient and conditionally immortal due to thermolabile simian virus 40 large tumor antigen (tsA58) expression. The myoblasts proliferate at 33° C. (10% CO2) in rich culture and differentiate into myotubes at 37° C. in media with horse serum.
H2K mdx myotubes were prepared and incubated with peptide-PNA and peptide-PMO conjugates in the absence of any transfection agent by the methods described previously (Wang, Q, Yin, H, et aL (2010) In vitro evaluation of novel antisense oligonucleotides is predictive of in vivo exon skipping activity for Duchenne muscular dystrophy) but with minor variations.
Myotubes were obtained from confluent H2K mdx cells seeded in gelatine coated 24-well plates following 2 days of serum deprivation (DMEM with 5% horse serum). The conjugates were incubated with myotubes for 4 h in 0.5 mL OptiMEM and then replaced by 1 mL of DMEM/5% horse serum media for further incubation. After 20 h myotubes were washed twice with PBS and total RNA was extracted with 0.5 mL of TRI Reagent (Sigma, UK). RNA preparations were treated with RNAse free DNAse (2U) and Proteinase K ([…]) prior to RT-PCR analysis. RT-PCR was carried out in 25 μL with 1 μg RNA template using SuperScript III One-Step RTPCR System with Platinum Taq DNA polymerase (Invitrogen) primed by forward primer 5′CAG AAT TCT GCC AAT TGC TGAG3′ [SEQ ID NO:312] and reverse primer 5′TTC TTC AGC TTG TGT CAT CC3′ [SEQ ID NO:313]. The initial cDNA synthesis was performed at 55° C. for 30 min followed by 30 cycles of 95° C. for 30 sec, 55° C. for 1 min and 68° C. for 80 sec. RT PCR product ([…]) was then used as the template for secondary PCR performed in 25 μL with 0.5 U Super TAQ polymerase (HT Biotechnologies) and primed by forward primer 5′CCCAGTCTACCACCCTATCAG AGC3′ [SEQ ID NO:314] and reverse primer 5′CCT GCC TTT AAG GCT TCC TT3′ [SEQ ID NO:315]. The cycling conditions were 95° C. for 1 min, 57° C. for 1 min and 72° C. for 80 sec for 25 cycles. Products were examined by 2% agarose gel and after scanning using Gene Tools Analysis Software (SynGene) the relative amount of exon 23 skipping was expressed as a percentage at a given concentration of conjugates averaged over duplicates of three experiments.
H2K mdx myotubes were prepared and incubated with peptide-PMO conjugates in the absence of any transfection agent at concentrations of 0.125, 0.25, 0.5 and 1.0 μM by the method described previously [Yin, H., et al., Pip5 transduction peptides direct high efficiency oligonucleotide-mediated dystrophin exon skipping in heart and phenotypic correction in mdx mice. Mol Ther, 2011. 19(7): p. 1295-303.]. The products of nested RT-PCR from total isolated RNA were examined by electrophoresis on a 2% agarose gel. Quantification of Δ23 transcript levels was calculated using densitometry. […]

[4] = tested on: dystrophin; experiment: Immunohistochemical staining and quantification of dystrophin in mdx mice after single IV injection; type: in vivo; conditions: 8 week old mdx mice, single 12.5 mg/kg IV, 2 weeks after injection
Description: Given the potency of Pip5e-PMO in heart tissue, the aim of altering the sequence of the hydrophobic core (whilst maintaining the 5-aa length) was to identify peptides that might be more efficient at lower doses. These modifications included inversion of the hydrophobic region (Pip6a), substitution of tyrosine by isoleucine (Pip6b), substitution of glutamine in the Pip6a sequence by displacement of the arginine immediately flanking the core in the first arginine-rich flanking region (Pip6e), and a scrambled hydrophobic core sequence (Pip6f). All Pip6 peptide-PMO conjugates were administered to mdx mice as single 12.5 mg/kg intravenous injections via the tail vein and tissues were harvested 2 weeks later and assessed for activity at both RNA and protein levels.
Immunohistochemical staining quantification (FIGS. 34a, b) was performed as previously described [Malerba, A., et al., Chronic systemic therapy with low-dose morpholino oligomers ameliorates the pathology and normalizes locomotor behavior in mdx mice. Mol Ther, 2011. 19(2): p. 345-54; Arechavala-Gomeza, V., et al., Immunohistological intensity measurements as a tool to assess sarcolemma-associated protein expression. Neuropathol Appl Neurobiol, 2010. 36(4): p. 265-74.] and was achieved by taking 4 representative frames of the dystrophin staining and correlating this with laminin staining for each section (n=3) of the quadriceps, diaphragm and heart for each peptide-PMO treatment. Untreated mdx and treated mdx mice were normalised to C57BL10 mice. This method allows comparison of the staining intensity of dystrophin at the sarcolemma relative to laminin for each treatment group. Intensity ratios are normalised to C57BL10 samples and each region of interest at the sarcolemma (120 regions for each treatment group) is plotted on a scatter graph. […]
Transverse sections of tissue samples were cut (8 μm thick) for the examination of dystrophin expression. For dystrophin visualisation and quantification, sections were co-stained with rabbit-anti-dystrophin (Abcam) and rat anti-laminin (Sigma), and detected by goat-anti-rabbit IgG Alexa 594 and goat-anti-rat IgG 488 secondary antibodies respectively (Invitrogen). […] Quantitative immunohistochemistry was performed as previously described [Malerba, A., et al., Chronic systemic therapy with low-dose morpholino oligomers ameliorates the pathology and normalizes locomotor behavior in mdx mice. […] For quantification, 4 representative frames of the dystrophin and correlating laminin were taken for each section (n=3) of the quadriceps, diaphragm and heart for each treatment. […] The minimum and maximum fluorescence intensity for 120 regions were recorded for each treatment. […]

[5] = tested on: dystrophin; conditions: intramuscular or intravenous delivery in mdx mice; cited from earlier work
[6] = Example 5, conjugate 0.125 to 2.0 μM

Substance: Exon-skipping PMO: phosphorodiamidate morpholino oligonucleotide for exon skipping, unconjugated, from cited toxicology studies (GGCCAAACCTCGGCTTACCTGAAAT; all phosphorodiamidate morpholino (PMO))
- well tolerated dosage [1]: ≤ 960 mg/kg
- well tolerated dosage [2]: ≤ 320 mg/kg

Substance: Pip9c2: Pip9 series peptide (SEQ ID Nos 320-328) conjugated to PMODMD (R[Ahx]RR[βAla]RRFQILY[βAla]R[Ahx]R[βAla]; also: conjugated to PMO (PMODMD))
- exon skipping activity (Δ23 skipping) in mdx muscle cells [3, 6]: high exon skipping activity

Substance: Pip9d: Pip9 series peptide (SEQ ID Nos 320-328) conjugated to PMODMD (R[Ahx]RR[βAla]RFQILY[βAla]R[βAla]R[βAla]; also: conjugated to PMO (PMODMD))
- exon skipping activity (Δ23 skipping) in mdx muscle cells [3, 6]: high exon skipping activity
- dystrophin expression in the heart [4]: negligible dystrophin production

Substance: Pip7d: Pip7 series peptide (SEQ ID NOs:11-16) conjugated to PMODMD (R[Ahx]R[βAla][Ahx]YRFLI[Ahx]R[βAla]R[Ahx]R[βAla]; also: conjugated to PMO (PMODMD), site not given here)
- exon skipping activity (Δ23 skipping) in mdx muscle cells ([3]; conjugate 0.125 to 1 μM): moderate exon skipping

Substance: RXRRBRRXRRBRXB (R[Ahx]RR[βAla]RR[Ahx]RR[βAla]R[Ahx][βAla]; also: conjugated to PMO (PMODMD)) [B peptide]
- exon skipping and dystrophin production compared to naked PMODMD [5]: significantly enhance exon skipping and dystrophin production

Substance: Pip8a: Pip8 series peptide (SEQ ID NOs:17-20, parent Pip 6a; 9 Arg) conjugated to PMODMD (R[Ahx]RR[βAla]R[Ahx]RYQFLIR[Ahx]RR[βAla]R[βAla]; also: conjugated to PMO (PMODMD))
- exon skipping activity (Δ23 skipping) in mdx muscle cells [3, 6]: high exon skipping activity
- exon skipping activity (Δ23 skipping) in mdx muscle cells ([3]; conjugate 0.125 to 1 μM): high exon skipping activity

Substance: Pip9c3: Pip9 series peptide (SEQ ID Nos 320-328) conjugated to PMODMD (R[Ahx]RR[βAla]RFQILYRR[βAla]R[βAla]; also: conjugated to PMO (PMODMD))
- exon skipping activity (Δ23 skipping) in mdx muscle cells [3, 6]: high exon skipping activity

Substance: Pip8c2: Pip8 series peptide (SEQ ID NOs:17-20) conjugated to PMODMD (R[Ahx]RR[βAla]RYQFLIRR[βAla]R[βAla]; also: conjugated to PMO (PMODMD))
- exon skipping activity (Δ23 skipping) in mdx muscle cells [3, 6]: high exon skipping activity
- dystrophin expression in the heart [4]: negligible dystrophin production

Substance: Pip8d: Pip8 series peptide (SEQ ID NOs:317-319) conjugated to PMODMD (R[Ahx]RR[βAla]RYQFLI[βAla]R[Ahx]R[βAla]; also: conjugated to PMO (PMODMD))
- exon skipping activity (Δ23 skipping) in mdx muscle cells [3, 6]: high exon skipping activity
